22 compounds from patent US9273028B2, “Heterocyclic tyrosine kinase inhibitors” (Biogen MA Inc., priority 2010, dated 2016) can be followed below.

Broadly, the pIC50 is the IC50 on a negative log10 scale, so that one unit is a factor of ten. Read a low pIC50 as a large IC50.

SMILES strings stand for the structures. pIC50: −log10 of the molar value.

Common to all, as to format: biochemical
For one assay, the target named is T1, BTK (Homo sapiens, UniProt Q06187).
T1 construct: purchased Upstate 14-552
T1 sequence (Q06187 whole entry): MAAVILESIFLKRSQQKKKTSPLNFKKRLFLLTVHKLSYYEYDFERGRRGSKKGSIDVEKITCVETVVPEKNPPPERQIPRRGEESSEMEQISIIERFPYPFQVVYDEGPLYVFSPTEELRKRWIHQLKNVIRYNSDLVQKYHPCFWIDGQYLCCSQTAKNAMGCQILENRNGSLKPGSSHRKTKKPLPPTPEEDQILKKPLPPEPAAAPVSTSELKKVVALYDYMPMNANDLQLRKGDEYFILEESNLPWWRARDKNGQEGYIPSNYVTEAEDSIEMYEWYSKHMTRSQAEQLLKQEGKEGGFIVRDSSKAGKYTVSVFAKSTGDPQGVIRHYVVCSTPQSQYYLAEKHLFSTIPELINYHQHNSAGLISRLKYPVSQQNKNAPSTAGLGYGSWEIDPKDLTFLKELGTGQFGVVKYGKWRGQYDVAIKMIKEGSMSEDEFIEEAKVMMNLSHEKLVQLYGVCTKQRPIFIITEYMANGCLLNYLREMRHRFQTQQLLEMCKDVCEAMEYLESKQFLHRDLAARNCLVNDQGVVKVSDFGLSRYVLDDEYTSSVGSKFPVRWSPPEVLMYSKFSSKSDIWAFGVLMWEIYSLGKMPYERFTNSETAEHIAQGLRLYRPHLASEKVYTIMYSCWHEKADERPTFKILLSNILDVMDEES
Nature of the assay: In vitro BTK kinase assay (BTK-POLYGAT-LS). The conditions noted are these: IC50 (10 uM ATP). The method in brief:
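Poly-GAT peptide at 100 nM with 10 μM ATP (final) in pH 7.5 Tris buffer containing MgCl2, DTT, Triton X-100 and 0.2 mg/ml casein.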

Another assay addresses T2, Tec (Homo sapiens, UniProt P42680).
T2 construct: purchased Carna Biosciences 08-182
T2 sequence (P42680 1-631): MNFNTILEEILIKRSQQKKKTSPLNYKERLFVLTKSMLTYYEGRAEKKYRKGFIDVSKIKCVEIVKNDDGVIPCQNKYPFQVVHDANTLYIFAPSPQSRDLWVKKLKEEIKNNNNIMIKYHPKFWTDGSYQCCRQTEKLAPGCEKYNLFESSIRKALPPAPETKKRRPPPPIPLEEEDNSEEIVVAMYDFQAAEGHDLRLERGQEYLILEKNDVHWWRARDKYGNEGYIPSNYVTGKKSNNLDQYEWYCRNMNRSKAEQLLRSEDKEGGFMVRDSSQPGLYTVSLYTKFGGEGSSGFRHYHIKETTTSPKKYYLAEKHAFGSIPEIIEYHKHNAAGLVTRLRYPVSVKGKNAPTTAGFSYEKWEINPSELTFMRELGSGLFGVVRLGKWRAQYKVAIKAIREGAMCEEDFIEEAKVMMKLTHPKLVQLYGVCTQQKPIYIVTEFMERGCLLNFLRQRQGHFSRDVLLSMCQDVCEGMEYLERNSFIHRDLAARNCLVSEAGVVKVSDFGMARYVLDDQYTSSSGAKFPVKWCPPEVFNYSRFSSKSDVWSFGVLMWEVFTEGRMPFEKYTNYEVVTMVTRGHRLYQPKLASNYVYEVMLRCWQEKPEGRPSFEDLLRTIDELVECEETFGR
The assay is described as follows: In vitro Tec kinase selectivity assay (Tec-POLYGT-LS). The note with it: ATP 25 μM. The protocol:
In Vitro Tec Kinase Selectivity Assay
(§1) The purpose of the Tec in vitro assay is to determine compound potency against Tec through the measurement of IC50. Compound inhibition is measured after monitoring the amount of phosphorylation of a fluorescein-labeled polyGT peptide (Invitrogen PV3610) in the presence of active Tec enzyme (Carna Biosciences 08-182), ATP, and inhibitor. The Tec kinase reaction was done in a black 96 well plate (costar 3694). For a typical assay, a 29 μL aliquot of a ATP/peptide master mix (final concentration; ATP 25 μM, polyGT 100 nM) in kinase buffer (10 mM Tris-HCl pH 7.5, 10 mM MgCl2, 200 μM Na3PO4, 5 mM DTT, 0.01% Triton X-100, and 0.2 mg/ml casein) is added to each well. Next, 1 μL of a 3-fold, 50× compound titration in 100% DMSO solvent is added, followed by adding 20 uL of Tec enzyme mix in 1× kinase buffer (with a final concentration of 0.125 nM). The assay is incubated for 15 minutes before being stopped with 5 μl, of a 220 mM EDTA solution. Aliquots (5 μL) of the kinase reaction are transferred to a low volume white 384 well plate (Corning 3674), and 5 μL of a 2× detection buffer (Invitrogen PV3574, with 2 nM Tb-PY20 antibody, Invitrogen PV3552) is added. The plate is covered and incubated for 45 minutes at room temperature. Time resolved fluorescence (TRF) on Molecular Devices M5 (332 nm excitation; 488 nm emission; 518 nm fluorescein emission) is measured.

In the next assay the target is T3, Itk (Homo sapiens, UniProt Q08881).
T3 construct: purchased Carna Bioscience 08-181
T3 sequence (Q08881 1-620): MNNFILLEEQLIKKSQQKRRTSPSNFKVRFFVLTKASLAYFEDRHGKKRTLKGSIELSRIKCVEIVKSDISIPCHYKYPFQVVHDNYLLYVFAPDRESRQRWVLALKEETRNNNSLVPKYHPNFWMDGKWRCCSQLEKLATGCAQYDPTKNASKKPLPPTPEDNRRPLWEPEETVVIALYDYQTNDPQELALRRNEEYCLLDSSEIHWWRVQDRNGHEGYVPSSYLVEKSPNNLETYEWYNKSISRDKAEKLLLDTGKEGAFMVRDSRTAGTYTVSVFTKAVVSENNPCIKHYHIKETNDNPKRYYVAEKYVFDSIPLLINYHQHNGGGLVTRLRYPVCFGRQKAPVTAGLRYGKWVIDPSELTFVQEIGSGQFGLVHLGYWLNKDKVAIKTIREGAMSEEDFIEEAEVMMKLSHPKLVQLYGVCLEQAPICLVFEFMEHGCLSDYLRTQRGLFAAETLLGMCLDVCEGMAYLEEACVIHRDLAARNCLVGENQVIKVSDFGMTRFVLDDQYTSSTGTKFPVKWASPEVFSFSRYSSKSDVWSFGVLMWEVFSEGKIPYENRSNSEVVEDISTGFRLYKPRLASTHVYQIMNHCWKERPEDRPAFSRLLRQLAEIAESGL
The assay is described as follows: Itk kinase selectivity assay (Example 142 procedure, Table 3 modifications). The note with it: ATP 10 μM. The protocol:
as §1
(§2) Using the procedure described in Example 142, with the modifications shown in Table 3, selectivity for Itk, Txk, and Lck was measured.

The next assay has as its target T4, Lck (Homo sapiens, UniProt P06239).
T4 construct: purchased Carna Bioscience 08-170
Nature of the assay: Lck kinase selectivity assay (Example 142 procedure, Table 3 modifications). The note with it: ATP 5 μM. As to the method: as §1, §2

In another assay the target is T5, Txk (Homo sapiens, UniProt P42681).
T5 construct: purchased Carna Bioscience 08-183
T5 sequence (P42681 1-527): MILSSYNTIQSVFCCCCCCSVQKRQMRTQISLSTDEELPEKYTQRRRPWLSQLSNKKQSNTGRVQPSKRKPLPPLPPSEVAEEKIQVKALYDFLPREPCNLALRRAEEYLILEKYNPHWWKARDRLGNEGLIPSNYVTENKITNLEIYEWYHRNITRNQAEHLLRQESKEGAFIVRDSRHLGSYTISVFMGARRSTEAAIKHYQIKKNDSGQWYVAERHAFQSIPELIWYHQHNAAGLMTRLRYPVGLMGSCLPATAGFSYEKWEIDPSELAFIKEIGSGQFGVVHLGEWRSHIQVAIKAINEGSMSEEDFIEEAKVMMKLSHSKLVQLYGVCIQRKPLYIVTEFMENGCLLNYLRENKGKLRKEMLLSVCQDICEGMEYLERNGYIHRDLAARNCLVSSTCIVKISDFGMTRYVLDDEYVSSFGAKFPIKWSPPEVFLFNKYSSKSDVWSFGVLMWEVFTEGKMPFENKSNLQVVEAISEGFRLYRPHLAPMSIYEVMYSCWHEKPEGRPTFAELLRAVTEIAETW
Nature of the assay: Txk kinase selectivity assay (Example 142 procedure, Table 3 modifications). The conditions noted are these: ATP 100 μM. As to the method: as §1, §2

T4 sequence (P06239 whole entry): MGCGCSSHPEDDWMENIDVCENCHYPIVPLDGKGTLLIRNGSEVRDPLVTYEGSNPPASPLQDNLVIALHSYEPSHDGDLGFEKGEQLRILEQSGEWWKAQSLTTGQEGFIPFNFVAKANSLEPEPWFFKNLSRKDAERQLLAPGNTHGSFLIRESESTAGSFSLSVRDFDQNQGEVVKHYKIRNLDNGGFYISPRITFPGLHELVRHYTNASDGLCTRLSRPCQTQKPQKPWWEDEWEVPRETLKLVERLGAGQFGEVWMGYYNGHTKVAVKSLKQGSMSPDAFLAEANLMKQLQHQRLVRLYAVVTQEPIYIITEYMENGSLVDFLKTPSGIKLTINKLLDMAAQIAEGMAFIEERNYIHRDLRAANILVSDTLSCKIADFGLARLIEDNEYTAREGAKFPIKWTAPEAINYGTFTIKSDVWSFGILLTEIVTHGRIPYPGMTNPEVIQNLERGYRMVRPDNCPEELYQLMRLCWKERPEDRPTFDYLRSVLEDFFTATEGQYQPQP

`O=C(CNc1cc(Cl)cc(Cl)c1)N1CCC[C@@H](Nc2ncnc3[nH]ncc23)C1` [Compound 222]: the negative logarithm of the IC50 (pIC50) is more than 7.00 at BTK; 6.00 to 7.00 at Tec; 5.00 to 6.00 against Itk; 5.00 to 6.00 against Lck; less than 5.00 at Txk.
Take `CN(c1ncnc2[nH]ccc12)[C@@H]1CCCN(C(=O)CNc2cc(Cl)cc(Cl)c2)C1` [Compound 209]: the pIC50 is 6.00 to 7.00 at Tec, 6.00 to 7.00 at Itk, 6.00 to 7.00 at Lck and 5.00 to 6.00 against Txk.
As to `CCC[C@@H](Nc1cc(F)cc(Cl)c1)C(=O)N1CCC2CCN(c3ncnc4[nH]ccc34)C2C1` (stereo partly shown) [Compound 100], the pIC50 is more than 7.00 against BTK; 6.00 to 7.00 against Tec; 6.00 to 7.00 against Itk; 6.00 to 7.00 at Lck; 5.00 to 6.00 against Txk.
`O=C(CNc1cc(Cl)cc(Cl)c1)N1CC[C@@H]2CCN(c3ncnc4[nH]ccc34)[C@@H]2C1` [Compound 124]: the pIC50 against Tec was more than 7.00; against Itk, 6.00 to 7.00; against Lck it was 6.00 to 7.00; against Txk, 6.00 to 7.00.
On to `O=C(CNc1ccccc1S(=O)(=O)N1CCCCC1)N1CCC2CCN(c3ncnc4[nH]ccc34)C2C1` (stereo not shown) [Compound 113], for which the pIC50 is 5.00 to 6.00 on Tec, 5.00 to 6.00 at Itk, less than 5.00 against Lck and 5.00 to 6.00 on Txk.
`O=C(CNc1cc(Cl)cc(Cl)c1)N1CCC[C@@H](Nc2ncnc3[nH]ccc23)C1` [Compound 220]: the pIC50 on Tec is 6.00 to 7.00; on Itk, 5.00 to 6.00; on Lck it was less than 5.00; at Txk, less than 5.00.
Regarding `O=C(CNc1cc(Cl)cc(Cl)c1)N1Cc2ccccc2C(Nc2ncnc3[nH]ccc23)C1` (stereo not shown) [Compound 96], the pIC50 is more than 7.00 on BTK; 6.00 to 7.00 at Tec; 6.00 to 7.00 on Itk; 6.00 to 7.00 against Lck; less than 5.00 against Txk.
Consider `C[C@@H]1[C@H](Nc2ncnc3[nH]ccc23)CCCN1C(=O)CNc1cc(Cl)cc(Cl)c1` [Compound 89], for which the pIC50 at Tec is more than 7.00; on Itk, 6.00 to 7.00.
For the compound `CN(c1ncnc2[nH]ccc12)C1CCCCN(C(=O)CNc2cc(Cl)cc(Cl)c2)C1` (stereo not shown) [Compound 143], the pIC50 on Tec, at Itk, on Lck and against Txk was less than 5.00 each time.
Take `O=C(CNc1cc(Cl)cc(Cl)c1)N1CC2CC(Nc3ncnc4[nH]ccc34)C1C2` (stereo not shown) [Compound 174]: the pIC50 against BTK was more than 7.00; on Tec it was less than 5.00; against Itk, less than 5.00; at Lck it was less than 5.00; at Txk, less than 5.00.
On to `O=C(CNc1ccccc1S(=O)(=O)c1ccccc1)N1CCC2CCN(c3ncnc4[nH]ccc34)C2C1` (stereo not shown) [Compound 114], for which the pIC50 at Tec is 6.00 to 7.00; at Itk, 6.00 to 7.00; at Lck, less than 5.00; on Txk, 6.00 to 7.00.
For `O=C([C@H](Nc1cc(Cl)cc(Cl)c1)C1CC1)N1CCC2CCN(c3ncnc4[nH]ccc34)C2C1` (stereo partly shown) [Compound 176], the pIC50 against BTK was more than 7.00; against Tec it was 5.00 to 6.00; against Itk it was 5.00 to 6.00; on Lck, 6.00 to 7.00; against Txk, 5.00 to 6.00.
As to `C[C@@H]1[C@H](Nc2ncnc3[nH]ncc23)CCCN1C(=O)CNc1cc(F)cc(Cl)c1` [Compound 25], the values for the pIC50 at BTK, at Tec and on Itk were more than 7.00, 6.00 to 7.00 and 6.00 to 7.00, respectively.
`O=C(CNc1cc(Cl)cc(Cl)c1)N1CCC2CCN(c3ncnc4[nH]ccc34)C2C1` (stereo not shown) [Compound 183]: the pIC50 at Tec was more than 7.00; against Itk, more than 7.00; against Lck, 6.00 to 7.00; at Txk, 6.00 to 7.00.
Take `CN(c1ncnc2[nH]ncc12)C1CCCCN(C(=O)CNc2cc(Cl)cc(Cl)c2)C1` (stereo not shown) [Compound 167]: the pIC50 was 6.00 to 7.00 on Tec, 5.00 to 6.00 against Itk, 5.00 to 6.00 at Lck and less than 5.00 at Txk.
For `CC1C(Nc2ncnc3[nH]ncc23)CCCN1C(=O)CNc1ccccc1S(=O)(=O)N1CCCCC1` (stereo not shown) [Compound 67], the pIC50 at BTK was more than 7.00; against Tec, 6.00 to 7.00; against Itk it was 5.00 to 6.00.
In the case of `CC1C(Nc2ncnc3[nH]ccc23)CCCN1C(=O)CNc1cc(Cl)cc(Cl)c1` (stereo not shown) [Compound 105], the pIC50 against Tec was 6.00 to 7.00; on Itk it was 6.00 to 7.00; against Lck, 6.00 to 7.00; against Txk, 5.00 to 6.00.
For `O=C(CNc1cc(Cl)cc(Cl)c1)N1CC[C@H]2CCN(c3ncnc4[nH]ccc34)[C@H]2C1` [Compound 123], the pIC50 on Tec was more than 7.00; against Itk, more than 7.00; on Lck, 6.00 to 7.00; against Txk it was 6.00 to 7.00.
For the compound `CC(C)CN(CC(C)C)S(=O)(=O)c1ccccc1NCC(=O)N1CCC[C@@H](Nc2ncnc3[nH]ncc23)C1` [Compound 217], the pIC50 against BTK is more than 7.00; at Tec, 6.00 to 7.00; against Itk, 6.00 to 7.00; against Lck it was 5.00 to 6.00; at Txk, 5.00 to 6.00.
Turning to `C[C@@H]1[C@H](Nc2ncnc3[nH]ncc23)CCCN1C(=O)CNc1cc(Cl)cc(Cl)c1` [Compound 29], the pIC50 was more than 7.00 on BTK, more than 7.00 at Tec and 6.00 to 7.00 at Itk.
Consider `O=C(CNc1cc(F)cc(Cl)c1)N1CCCC(Nc2ncnc3[nH]ccc23)C1C(F)(F)F` (stereo not shown) [Compound 23], for which the pIC50 against BTK is more than 7.00; at Tec it was 6.00 to 7.00; against Itk it was 5.00 to 6.00.
`NC(=O)c1cnc2[nH]ccc2c1N[C@H]1CCCN(C(=O)CNc2cc(Cl)cc(Cl)c2)[C@H]1C(F)(F)F` [Compound 226]: the pIC50 against BTK, against Tec, at Itk and against Txk was more than 7.00 throughout.
